Where two headings read alike, the source gives them in different places.
How the values were obtained:
[1] = test system: N. fowleri ATCC 30808 trophozoites; assay: In vitro activity against trophozoite stage (alamarBlue), strain ATCC 30808; type: cell-based, Naegleria fowleri; settings: for S.I. ATCC 30808 (selectivity index CC50/IC50): CC50 murine macrophages / IC50 N. fowleri ATCC 30808; for IC50 / IC90: Naegleria fowleri, ATCC30808, trophozoites, alamarBlue, 48 h incubation
[2] = test system: N. fowleri ATCC 30215 trophozoites; assay: In vitro activity against trophozoite stage (alamarBlue), strain ATCC 30215; type: cell-based; settings: Naegleria fowleri, ATCC30215, 48 h incubation
[3] = In vitro cytotoxicity against murine macrophages (alamarBlue); type: cell-based; settings: mouse
Description: (§1) For cytotoxicity assays, a murine cell line macrophage J774A.1 (ATCC TIB-67) was used, maintained in the Dulbecco’s modified Eagle’s medium (DMEM, w/v) supplemented with 10% (v/v) FBS and 10 μg/mL gentamicin (Sigma-Aldrich, Madrid, Spain), incubated at 37 °C in a 5% CO2 atmosphere.
(§2) In this assay, a murine macrophage cell line J774A.1 (ATCC TIB-67) was used. Serial dilutions of the compounds were added and, subsequently, the alamarBlue reagent as described in previous studies[51] was also placed. Once the plates were read on the EnSpire Multimode Plate Reader (PerkinElmer, Madrid, Spain), the data were analyzed to obtain the cytotoxic concentration 50 (CC50). This CC50, together with the activity, was used to obtain the selectivity index for N. fowleri.

[4] = test system: murine macrophage cell line J774A.1 (ATCC TIB-67); assay: as above; type: cell-based; settings: mouse
Description: as §1, §2

[5] = test system: N. fowleri ATCC 30808 cysts; assay: In vitro activity against cyst stage (alamarBlue); type: cell-based; settings: Naegleria fowleri, ATCC30808, read 24 h after adding reagent, read-out: Cysticidal activity, N. fowleri ATCC 30808 IC50
[6] = test system: N. fowleri ATCC 30808 trophozoites; assay: Chromatin condensation assay (Hoechst 33342/PI double stain); type: cell-based, Naegleria fowleri; settings: 24 h incubation with IC90
Description: (§3) To evaluate the mechanisms of action of the compounds at the cellular level, a series of commercial kits were used according to the manufacturer’s instructions. To carry out the assays, the N. fowleri ATCC 30808 culture was previously incubated with the IC90 of the compounds evaluated for 24 h. Nontreated N. fowleri trophozoites were used as a negative control. […] Five images were processed each time at 40x and 100x objective lenses.
A double-stain apoptosis detection kit (Hoechst 33342/PI) (Life Technologies, Madrid, Spain) was used to evaluate DNA condensation based on the fluorescent detection for chromatin compaction in apoptotic cells, and the assay offers a rapid and convenient apoptosis detection. As soon as the amoebae have been incubated for 24 h with the active compound’s IC90, Hoechst and propidium iodide (PI) are added at a final concentration of 5 and 1 μg/mL, respectively. Fluorescence should be observed after 15 min of incubation in the dark. In apoptotic cells, Hoechst 33342, a dye for blue fluorescence, stains the condensed chromatin more intensely than that in normal cells. PI emits red fluorescence (maximum excitation and emission wavelengths when bound to DNA of 535 and 617 nm, respectively), which can only be emitted through dead cells.

[7] = test system: N. fowleri ATCC 30808 trophozoites; assay: Mitochondrial membrane potential disruption (JC-1); type: cell-based, Naegleria fowleri; settings: 24 h incubation with IC90
Description: as §3
To determine the potential of the mitochondrial membrane was use the dye JC-1 (1,1′,3,3′-tetraethyl-5,5′,6,6′-tetrachloroimidacarbocyanine iodide) (Cayman Chemicals Vitro SA, Madrid, España). Once the amoebae were incubated for 24 h with the IC90 of the active compounds, 10 μL of JC-1 was added. […] The reagent fluoresces at two different wavelengths depending on the membrane potential. Under normal conditions, the monomers bind together to form J-aggregates (dimers) emitting red fluorescence at 595 nm.

[8] = test system: N. fowleri ATCC 30808 trophozoites; assay: ATP levels (CellTiter-Glo Luminescent Cell Viability Assay); type: cell-based, Naegleria fowleri; settings: 24 h incubation with IC90
Description: To evaluate the mechanisms of action of the compounds at the cellular level, a series of commercial kits were used according to the manufacturer's instructions. To carry out the assays, the N. fowleri ATCC 30808 culture was previously incubated with the IC90 of the compounds evaluated for 24 h. Nontreated N. fowleri trophozoites were used as a negative control. […] Five images were processed each time at 40x and 100x objective lenses. In order to measure the amount of ATP produced, Cell […]-GLO Luminescent Cell Viability assay (Promega Biotech Ibérica, Madrid, Spain) was used. With this kit, it is possible to compare the ATP production of treated cells to that of nontreated (negative control). ATP levels were evaluated by luminescent analysis using an EnSpire Multimode Plate Reader (Perkin Elmer, Madrid, Spain) following incubation with IC90 of selected compounds at 37 °C for 24 h.

[9] = test system: N. fowleri ATCC 30808 trophozoites; type: cell-based, Naegleria fowleri; settings: not told
Description: as §3
The permeability of the plasma membrane can be analyzed using a green fluorescent dye called SYTOX Green (Life Technologies, Madrid, Spain). After the amoebae are incubated for 24 h with the IC90 of cyanomethyl vinyl ethers, SYTOX Green was added to a final concentration of 1 μM and after 15 min of incubation, cells were observed using Discover Echo Inc. Revolution Microscope (Discover Echo, San Diego, CA). The plasma membrane of the damaged cells will become permeable, giving the reagent the ability to enter through it. When inside the cell, it binds to the DNA and increases its fluorescence more than 500-fold, emitting green fluorescence at 523 nm.

[10] = test system: N. fowleri ATCC 30808 trophozoites; assay: Oxidative stress / ROS detection (CellROX Deep Red); type: cell-based, Naegleria fowleri; settings: 24 h incubation with IC90
Description: To evaluate the mechanisms of action of the compounds at the cellular level, a series of commercial kits were used according to the manufacturer’s instructions. To carry out the assays, the N. fowleri ATCC 30808 culture was previously incubated with the IC90 of the compounds evaluated for 24 h. Nontreated N. fowleri trophozoites were used as a negative control. […] Five images were processed each time at 40x and 100x objective lenses. In this assay, the oxidative stress produced in the pathogen by the generation of oxygen free radicals is evaluated. The CellROX Deep Red kit (Invitrogen, Thermo Fisher Scientific, Madrid, Spain) was used in amoebae incubated for 24 h with the IC90 of the compounds to be tested. The reagent was used at a final concentration of 5 μM and incubated for 30 min. After this time, the action of the reagent was observed using the Discover Echo Inc. Revolution Microscope (Discover Echo, San Diego, CA). As a result of the overproduction of reactive oxygen species (ROS), this dye has the ability to penetrate the cells and emit red fluorescence at a wavelength of ∼644/665 nm.

[11] = test system: N. fowleri ATCC 30808 trophozoites; assay: Actin filament depolymerization (phalloidin-TRITC); type: cell-based, Naegleria fowleri; settings: 24 h incubation with IC90, Z-stack imaging
Description: To evaluate the mechanisms of action of the compounds at the cellular level, a series of commercial kits were used according to the manufacturer’s instructions. To carry out the assays, the N. fowleri ATCC 30808 culture was previously incubated with the IC90 of the compounds evaluated for 24 h. Nontreated N. fowleri trophozoites were used as a negative control. […] Five images were processed each time at 40x and 100x objective lenses. The disassembly of cytoskeleton in treated amoebae can be analyzed by the red fluorescence emitted by phalloidin-TRITC when it binds to actin filaments. On the other hand, DAPI reagent was used which, in turn, binds to DNA and emits blue fluorescence, as already described in Acanthamoeba genus.[52] In this assay, amoebae were incubated with the IC90 of compounds. A 24-h incubation period was followed by the fixation of the cells with formaldehyde on a coverslip and the addition of 0.1% Triton before the addition of phalloidin-tetramethylrhodamine B isothiocyanate (phalloidin-TRITC; Sigma-Aldrich, Madrid, Spain) for another 30-min period. Finally, after incubation, the sample was washed with PBS. Cells were examined by Z-stack with a 100x objective of the EVOS FL Cell Imaging System AMF4300 (Life Technologies, Madrid, Spain).

[12] = J774A.1 macrophage cell line (ATCC TIB-67), alamarBlue, read-out: Murine macrophages J774.A1 CC50
[13] = Murine macrophages J774.A1 CC50

Compound: C[C@@H]1[C@H](O)[C@@H](C)/C=C/C=C/C=C/C=C/C=C/C=C/C=C/[C@H](O[C@@H]2O[C@H](C)[C@@H](O)[C@H](N)[C@@H]2O)C[C@@H]2O[C@](O)(C[C@@H](O)C[C@@H](O)[C@H](O)CC[C@@H](O)C[C@@H](O)CC(=O)O[C@H]1C)C[C@H](O)[C@H]2C(=O)O [Amphotericin B, reference compound]
- S.I. ATCC 30808 (selectivity index CC50/IC50) [1]: ≥1652.89
- IC50 [1]: 0.12 ± 0.03 µM
- IC90 [1]: 0.35 ± 0.02 µM
- IC50 [2]: 0.16 ± 0.02 µM
- CC50 [3, 12]: ≥ 200 µM

Compound: CCCCCCCCCCCCCCCCOP(=O)([O-])OCC[N+](C)(C)C [Miltefosine, miltefosine, reference compound]
- S.I. ATCC 30808 (selectivity index CC50/IC50) [1]: 3.30
- IC50 [1]: 38.7 ± 4.23 µM
- IC90 [1]: 89.5 ± 17.4 µM
- IC50 [2]: 81.6 ± 7.23 µM
- CC50 [3, 12]: 128 ± 8.85 µM

Compound: COC(=O)/C=C/OC(C#N)c1ccccc1 (centres unmarked) [QOET-51]
- S.I. ATCC 30808 (selectivity index CC50/IC50) [1]: 14.23
- IC50 [1]: 49.9 ± 3.04 µM
- IC90 [1]: 173 ± 17.2 µM
- IC50 [2]: 68.5 ± 2.16 µM
- CC50 [3, 13]: 709 ± 67.1 µM

Compound: COC(=O)/C=C/OC(C#N)c1ccc(C)cc1 (centres unmarked) [QOET-59]
- S.I. ATCC 30808 (selectivity index CC50/IC50) [1]: >20
- IC50 [1]: 42.3 ± 6.44 µM
- IC90 [1]: 77.2 ± 11.8 µM
- IC50 [2]: 44.5 ± 0.48 µM
- CC50 [3, 13]: > 800 µM
- CC50 [4]: > 865 µM
- IC50 [5]: 93.6 ± 17.5 µM
- Chromatin condensation (Hoechst 33342 blue fluorescence) [6]: condensation was observed
- Mitochondrial membrane potential (JC-1 fluorescence) [7]: disruption in the mitochondrial membrane potential
- Decrease in ATP levels compared to the negative control [8]: 98.49%
- Plasma membrane permeability (SYTOX Green fluorescence) [9]: show green fluorescence
- Intracellular ROS generation (CellROX Deep Red fluorescence) [10]: increase of the intracellular ROS generation
- Actin filaments (phalloidin-TRITC fluorescence) [11]: bright red fluorescence region related to actin depolymerization

Compound: COC(=O)/C=C\OC(C#N)c1ccc(C(F)(F)F)cc1 (centres unmarked) [QOET-64]
- S.I. ATCC 30808 (selectivity index CC50/IC50) [1]: >9
- IC50 [1]: 38.8 ± 2.13 µM
- IC90 [1]: 83.4 ± 9.47 µM
- IC50 [2]: 48.9 ± 0.81 µM
- CC50 [3, 13]: > 351 µM

Compound: COC(=O)/C=C/OC(C#N)c1cc(OC)c(OC)c(OC)c1 (centres unmarked) [QOET-67]
- S.I. ATCC 30808 (selectivity index CC50/IC50) [1]: >6
- IC50 [1]: 48.3 ± 10.5 µM
- IC90 [1]: 154 ± 15.3 µM
- IC50 [2]: 121 ± 20.7 µM
- CC50 [3, 13]: > 325 µM

Compound: COC(=O)/C=C\OC(C#N)c1ccc(C)c(C)c1 (centres unmarked) [QOET-72]
- S.I. ATCC 30808 (selectivity index CC50/IC50) [1]: >7
- IC50 [1]: 47.7 ± 4.1 µM
- IC90 [1]: 185 ± 7.05 µM
- IC50 [2]: 50.1 ± 4.9 µM
- CC50 [3, 13]: > 408 µM
- IC50 [5]: 130 ± 22.8 µM
- Chromatin condensation (Hoechst 33342 blue fluorescence) [6]: condensation was observed
- Mitochondrial membrane potential (JC-1 fluorescence) [7]: disruption in the mitochondrial membrane potential
- Decrease in ATP levels compared to the negative control [8]: 90.25%
- Plasma membrane permeability (SYTOX Green fluorescence) [9]: show green fluorescence
- Intracellular ROS generation (CellROX Deep Red fluorescence) [10]: increase of the intracellular ROS generation
- Actin filaments (phalloidin-TRITC fluorescence) [11]: bright red fluorescence region related to actin depolymerization

Compound: COC(=O)/C=C/OC(C#N)c1ccccc1C (centres unmarked) [QOET-77]
- S.I. ATCC 30808 (selectivity index CC50/IC50) [1]: >10
- IC50 [1]: 39.2 ± 6.3 µM
- IC90 [1]: 117 ± 26.1 µM
- IC50 [2]: 42.7 ± 8.5 µM
- CC50 [3, 13]: > 394 µM
- IC50 [5]: 102 ± 7.01 µM
- Chromatin condensation (Hoechst 33342 blue fluorescence) [6]: condensation was observed
- Propidium iodide red fluorescence [6]: late apoptosis phase
- Mitochondrial membrane potential (JC-1 fluorescence) [7]: disruption in the mitochondrial membrane potential
- Decrease in ATP levels compared to the negative control [8]: 86.28%
- Plasma membrane permeability (SYTOX Green fluorescence) [9]: show green fluorescence
- Intracellular ROS generation (CellROX Deep Red fluorescence) [10]: increase of the intracellular ROS generation
- Actin filaments (phalloidin-TRITC fluorescence) [11]: only low red fluorescence was detected

Compound: COC(=O)/C=C/OC(C#N)c1ccc(F)cc1 (centres unmarked) [QOET-79]
- S.I. ATCC 30808 (selectivity index CC50/IC50) [1]: >10
- IC50 [1]: 43.3 ± 5.69 µM
- IC90 [1]: 119 ± 26 µM
- IC50 [2]: 54.3 ± 7.4 µM
- CC50 [3, 13]: > 425 µM

Source: PMC10251482, “Cyanomethyl Vinyl Ethers Against Naegleria fowleri” (ACS Chemical Neuroscience, 2023)
